Results: US20070027190A1, “Antibacterial fab i inhibitors” (priority 2003, published 2007)
Values after ≈ are worked out from the molar mass of the structure shown.

Test system: methicillin resistant Staphyloccocus aureus (MRSA, strain ATCC 700699)
Test: MIC against methicillin resistant S. aureus (NCCLS dilution)
Type: cell-based
Conditions: Staphylococcus aureus, serial two-fold dilutions, 96-well
Method: The sensitivity of methicillin resistant Staphyloccocus aureus (MRSA, strain ATCC 700699, American Type Culture Collection, Manassas, Va.) to the disclosed fabI inhibitors was followed by measuring the minimal inhibitory concentration (MIC) at varying inhibitor levels. This was performed according to NCCLS (National Center for Clinical Laboratory Standards) recommendations (NCCLS, 1997, METHODS FOR DILUTION ANTIMICROBIAL SUSCEPTIBILITY TESTS FOR BACTERIA THAT GROW AEROBICALLY, 4th ed.; approved standard. NCCLS document M7-A4. NCCLS, Wayne, Pa.), in 100 μl volume in 96-well format, with serial two-fold dilutions of drug concentration.

Compound | MIC [µg/mL]
CC(C)NC(=O)CSc1nc(-c2cccs2)cc(-c2ccc(F)cc2)c1C#N [B] | > 64
N#Cc1c(-c2cccs2)cc(-c2cccs2)nc1SCc1ccc(C(=O)O)cc1 [Compound A] | 2 (≈ 4.6 µM)
N#Cc1c(-c2cccs2)cc(-c2cccs2)nc1SC(C(=O)O)c1ccccc1 (centres unmarked) [Compound C] | 32 (≈ 73.6 µM)
COc1ccc(NC(=O)CSc2nc(-c3cccs3)cc(-c3ccc(F)cc3)c2C#N)cc1OC [D] | > 64
N#Cc1c(-c2cccs2)cc(-c2cccs2)nc1SCCc1ccc(C(=O)O)cc1 [E] | 0.75 (≈ 1.67 µM)
CC(Sc1nc(-c2cccs2)cc(-c2cccs2)c1C#N)c1ccc(C(=O)O)cc1 (centres unmarked) [F] | 0.75 (≈ 1.67 µM)
N#Cc1c(-c2cccs2)cc(-c2cccs2)nc1SCc1cccc(C(=O)O)c1 [G] | 1.5 (≈ 3.45 µM)
N#Cc1c(-c2cccs2)cc(-c2cccs2)nc1SCc1ccc(CC(=O)O)cc1 [H] | 4 (≈ 8.92 µM)
COc1ccc(-c2cc(-c3ccco3)c(C#N)c(SCc3ccc(C(=O)O)cc3)n2)cc1 [I] | 8 (≈ 18.1 µM)
CC(C)NC(=O)CSc1nc(-c2cccs2)cc(-c2ccc(Cl)cc2)c1C#N [N] | > 64
N#Cc1c(-c2ccc(Cl)cc2)cc(-c2cccs2)nc1SCC(N)=O [Q] | > 64

Biological target: T1, E. coli fabI (Escherichia coli, UniProt P0AEK4)
T1 construct: made in house; host or cells: E. coli BL21(DE3)
Test: fabI kinetic assay (NADH absorption at 340 nm, crotonoyl-CoA substrate)
Type: biochemical
Conditions: not given
Method: In order to perform more detailed kinetic assays on the disclosed compounds, additional purifed fabI was needed. The E. coli fabI gene was cloned into the pET30a expression vector (Novagen, Inc., Madison, Wis.) and expressed in E. coli BL21(DE3) cells. The purification procedure utilized chromatography with Q-sepharose, blue resin, and HA resin as follows.
Each cell pellet was suspended in a 4 fold-volume of lysis buffer (50 mM KH2PO4 pH 8.0, 100 mM NaCl, 2 mM ethylene glycol tetra-acetic acid (EGTA), and 10% glycerol). Cells were broken by passage through a Microfludics cell disrupter 4 times, and the cell lysate was centrifuged at 30,000×g for 20 minutes. The supernatant was applied to a Q-sepharose column pre-equilibrated in a buffer composed of 10 mM Tris-HCl pH 8.0, 0.1 mM EGTA, 1 mM phenylmethylsulfonylfluoride (PMSF), 100 mM NaCl, 10% glycerol, 0.1% β-mercaptoethanol, and 0.02% Brij 35. fabI was eluted with a NaCl gradient (0.1-1M) in the equilibration buffer. The major peak fractions were pooled and concentrated, then dialyzed overnight at 4° C. in 2 L of dialysis buffer (10 mM Tris-HCl pH 7.5, 0.1 mM EGTA, 0.1 mM PMSF, 10% glycerol, 0.1% β-mercaptoethanol, and 0.02% Brij 35). The dialyzed solution was centrifuged at 3,000×g for 20 minutes, and the supernatant was loaded on a blue resin column pre-equilibrated in a buffer composed of 10 mM Tris-HCl pH 7.5, 0.1 mM EGTA, 1 mM PMSF, 50 mM NaCl, 10% glycerol, 0.1% β-mercaptoethanol, and 0.02% Brij 35. fabI was eluted with the equilibration buffer containing NaCl (gradient 50˜1000 mM). The major peak fractions were pooled and dialyzed overnight at 4° C. in 2 L of the equilibration buffer as described above. Then the dialyzed solution was centrifuged at 3,000×g for 20 minutes, and the supernatant was further purified on a hydroxyapatite column pre-equilibrated in a buffer consisting of 20 mM KH2PO4 pH 8.0, 0.1 mM EGTA, 0.1 mM PMSF, 10% glycerol, 0.1% β-mercaptoethanol, and 0.02% Brij 35. fabI was eluted with a gradient of KH2PO4 up to 500 mM. The peak fractions were pooled and dialyzed in storage buffer (10 mM MOPS pH7.0, 150 mM NaCl, 0.1 mM EGTA, 50% glycerol, 0.02% Brij 35), then stored at −20° C.
The kinetic assay was used to confirm the activity of compounds identified by the single-point assay and screen and to measure the IC50 of compounds which inhibit fabI. It was performed in a 96 well microtiter dish. The final concentrations of each component in each 50 μl reaction are as follows—sodium phosphate pH 7.5, 100 mM; NADH, 200 uM; dithiothreitol (DTT), 1 mM; fabI, 3 ug/ml; crotonoyl-CoA, 0.8 mM.
A 2 ul volume of each compound to be tested was loaded into each well, followed by 30 ul Buffer A (sodium phosphate pH7.5, 100 mM; DTT, 1 mM; fabI, 5 ug/ml, obtained as described below). For IC50 measurements, the compound was tested in serial dilution. The reaction was initiated by adding 20 ul Buffer B (sodium phosphate pH7.5, 100 mM; NADH, 500 uM; DTT, 1 mM; and the substrate, crotonoyl-CoA, 2 mM). The reaction was monitored for 5.5 minutes on a spectrometer by measuring absorption at 340 nm. The rate of reduction of NADH in each reaction well was collected and the percentage inhibition was calculated by using SOFTmax® PRO software (Molecular Devices, Sunnyvale, Calif.). The percentage of inhibition of each compound was calculated according to following formula: Percentage Inhibition=100*(rate in the presence of compound-rate of negative control)/(rate of positive control-rate of negative control)
The negative control was the reaction of fabI in the presence of 2% DMSO but no inhibitory compounds, and the positive control was the mixture of the all reaction components excluding fabI.

T1 sequence (P0AEK4 whole entry): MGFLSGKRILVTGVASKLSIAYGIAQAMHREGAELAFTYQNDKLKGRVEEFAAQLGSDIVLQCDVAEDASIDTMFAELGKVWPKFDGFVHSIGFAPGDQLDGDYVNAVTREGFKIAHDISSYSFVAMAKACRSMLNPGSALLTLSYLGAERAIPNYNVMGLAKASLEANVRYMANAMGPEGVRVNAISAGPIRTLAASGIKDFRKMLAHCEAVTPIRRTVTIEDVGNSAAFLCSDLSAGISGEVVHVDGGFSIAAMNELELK

Compound | IC50 [µM]
CC(C)NC(=O)CSc1nc(-c2cccs2)cc(-c2ccc(F)cc2)c1C#N [B] | 12
N#Cc1c(-c2cccs2)cc(-c2cccs2)nc1SCc1ccc(C(=O)O)cc1 [Compound A] | 4
N#Cc1c(-c2cccs2)cc(-c2cccs2)nc1SC(C(=O)O)c1ccccc1 (centres unmarked) [Compound C] | 12.3
COc1ccc(NC(=O)CSc2nc(-c3cccs3)cc(-c3ccc(F)cc3)c2C#N)cc1OC [D] | 9.2
N#Cc1c(-c2cccs2)cc(-c2cccs2)nc1SCCc1ccc(C(=O)O)cc1 [E] | 3
CC(Sc1nc(-c2cccs2)cc(-c2cccs2)c1C#N)c1ccc(C(=O)O)cc1 (centres unmarked) [F] | 3
N#Cc1c(-c2cccs2)cc(-c2cccs2)nc1SCc1cccc(C(=O)O)c1 [G] | 6
N#Cc1c(-c2cccs2)cc(-c2cccs2)nc1SCc1ccc(CC(=O)O)cc1 [H] | 25
COc1ccc(-c2cc(-c3ccco3)c(C#N)c(SCc3ccc(C(=O)O)cc3)n2)cc1 [I] | 25
CC(C)NC(=O)CSc1nc(-c2cccs2)cc(-c2ccc(Cl)cc2)c1C#N [N] | 46
N#Cc1c(-c2ccc(Cl)cc2)cc(-c2cccs2)nc1SCC(N)=O [Q] | 33

Same assay, conditions: purified E. coli fabI 3 ug/ml; NADH 200 uM; crotonoyl-CoA 0.8 mM; pH 7.5; read-out: IC50

Compound | IC50 [µM]
N#Cc1c(-c2cccs2)cc(-c2cccs2)nc1SCCC(=O)O [P] | 87

Test system: fabI (acetate incorporation into fatty acids) in S. aureus strain ATCC 700699
Test: 14C acetate incorporation into fatty acids in S. aureus
Type: cell-based
Conditions: 0.25x-2x MIC; 0-30 min at 37° C.; FIG. 1
Method: Radioactive (14C) acetic acid was added to 0.4 uCi/ml. After incubation at 37° C. for 0, 5, 10, 15, and 30 minutes, samples were taken, and cells were added to ice cold 10% trichloroacetic acid (TCA) for 30 min. Next, cells were filtered (Millipore MultiScreen-FC filters), washed 2× with 200 ul and 1× with 100 ul cold 10% TCA followed by 2× with 200 ul and 1× with 100 ul cold water. The filters were added to 5 ml scintillation fluid and counts per minute were measured in a scintillation counter. The % inhibition of acetate incorporation into fatty acids was determined by comparison to a control consisting of cells not treated with inhibitor.

Compound | inhibition of acetate incorporation into fatty acids (activity of fabI)
N#Cc1c(-c2cccs2)cc(-c2cccs2)nc1SCc1ccc(C(=O)O)cc1 [Compound A] | marked inhibition

Test system: strain of Staphylococcus aureus that under-expresses a fabI gene under control of a regulated promoter
Test: MIC in IPTG-regulated fabI under-expressing S. aureus strain
Type: cell-based
Conditions: read-out: minimum inhibitory concentration (MIC), fabI regulated by IPTG, before the inducer (IPTG) level was reduced
From the text: In general, a bacterial strain which is under-producing the target of interest will be more sensitive to test compounds than a wild-type strain if the compound is acting via inhibition of that target. Accordingly, a strain of Staphylococcus aureus that under-expresses a fabI gene under control of a regulated promoter was constructed.
First, the endogenous S. aureus fabI gene was replaced with a drug-resistance marker (erythromycin-resistance, erm^r) in a two-step allele-replacement procedure (see F. Fan et al., Plasmid, 2001, 46: 71-75). About 1 Kb of DNA sequence flanking each side of the S. aureus fabI gene (SwissProt Q9RMI3; M. Kuroda et al., Lancet 2001, 357:1225-1240) was PCR-amplified from genomic DNA, ligated to an erythromycin-resistance cassette by cross-over PCR (A. J. Link et al., J. Bacteriol., 1997, 179: 6228-6237), and cloned into an allele-replacement suicide vector carrying a kanamycin-resistance marker (kan^r) and the sacB gene encoding levansucrase. This allele-replacement plasmid was introduced by electroporation into an S. aureus host strain carrying the E. coli lactose operon repressor (lacI) and a lac-promoter driving T7 RNA polymerase production from the chromosome. Selection for kan^r yielded cells containing the entire plasmid by means of a single cross-over recombination. […]

Compound | MIC [µg/mL]
N#Cc1c(-c2cccs2)cc(-c2cccs2)nc1SCc1ccc(C(=O)O)cc1 [Compound A] | 8

Same assay, conditions: read-out: minimum inhibitory concentration (MIC), fabI regulated by IPTG, inducer (IPTG) level reduced

Compound | MIC [µg/mL]
N#Cc1c(-c2cccs2)cc(-c2cccs2)nc1SCc1ccc(C(=O)O)cc1 [Compound A] | 4
